Q: Which melting point does the source give for `CCC1c2[nH]c3ccccc3c2CC(C(=O)O)N1C(=S)SC` (stereo not given) here?
A: 155 to 157 °C

Q: With `CC(C)(C)OC(=O)C1C(C#CC(=O)OCC(Cl)(Cl)Cl)C1(C)C` (stereo not given) as the molecule, how does the melting point read?
A: 70 to 71 °C

Q: With `CCOC(=O)c1cn(C)c2nc3cc(N4CCN[C@@H](c5ccccc5)C4)c(F)cc3cc2c1=O` as the molecule, how does the melting point read?
A: 221 °C

Q: For `CN(C)C(=O)c1cc2n(c1)CCc1ccccc1C2=O`, which melting point is on record?
A: 148 to 150 °C

Q: For `CC(C)(C)OC(=O)N1CCC(N2C(=O)OCc3ccccc32)CC1`, which melting point is on record?
A: 143 to 145 °C

Q: With `CCOc1ccc(OCc2ccc(OCc3nc(-c4ccccc4)oc3C)cc2)cc1CC(=O)OC` as the molecule, how does the melting point read?
A: 82 to 83 °C

Q: With `CC(C)Oc1nc(SCc2cccc(C(F)(F)F)c2)nc2[nH]c(=O)cnc12` as the molecule, how does the melting point read?
A: 205 to 206 °C

Q: Which melting point does the source give for `CCOC(=O)c1ccc(OCCc2c[nH]cn2)cc1` here?
A: 160 to 164 °C

Q: With `Cc1c(F)c(Oc2cccnc2)nc(Oc2cccc(C(=N)N)c2)c1F` as the molecule, how does the melting point read?
A: 213 to 214 °C

Q: Which melting point does the source give for `O=C(c1ccccc1)n1c2ccccc2c2cc(O)c(O)cc21` here?
A: 260 to 261 °C

Q: With `CC(C)c1ccc(OC(C)(Cc2ccc(OCCNC(=O)c3ccc(OCC(F)(F)C(F)F)nc3)cc2)C(=O)O)cc1` (stereo not given) as the molecule, how does the melting point read?
A: 173 to 175 °C

Q: For `CCS(=O)(=O)CCC(=O)NNC(=O)N1Cc2ccccc2Oc2ccc(NS(C)(=O)=O)cc21`, which melting point is on record?
A: 211 to 212 °C

Q: Which melting point does the source give for `CN=C(NS(=O)(=O)N1CCCCC1)C1=NN(c2ccc(Cl)cc2)C(c2ccccc2)C1` (stereo not given) here?
A: 141 to 144 °C

Q: For `OCc1ccc2c(ccn2-c2ccnc(N[C@H]3CC[C@H](O)CC3)n2)c1`, which melting point is on record?
A: 232 to 234 °C

Q: For `COC(=O)/C=C/C1=C(c2ccc(OC)cc2)c2ccc(OC)cc2CC1`, which melting point is on record?
A: 116 to 118 °C

Q: Which melting point does the source give for `CCNc1ccc2c(c1)Cc1c-2[nH]c2ccccc12` here?
A: 225 °C

Q: For `CCOC(=O)c1nc2sc(C(=O)OCC)c(C)c2c(=O)[nH]1`, which melting point is on record?
A: 237 to 238 °C

Q: With `O=C(c1ccc2c(c1)sc(=O)n2CCOc1ccc(CC(OCC(F)(F)F)C(=O)O)cc1)C1CC1` (stereo not given) as the molecule, how does the melting point read?
A: 124 to 128 °C

Q: With `CC(C)(C)NCC(O)c1cc(Br)c(N)c(C(N)=O)c1` (stereo not given) as the molecule, how does the melting point read?
A: 135 to 145 °C

Q: Which melting point does the source give for `COc1ccc(-c2cc(COS(C)(=O)=O)c(=O)n(Cc3ccc(F)c(F)c3)n2)cc1F` here?
A: 146 to 147 °C

Q: For `CN(Cc1ccc(Cl)c(Cl)c1)C(=O)C1=C(O)C(=O)N(C2CC2)C1`, which melting point is on record?
A: 163 to 164 °C

Q: Which melting point does the source give for `CCOC(=O)C1=C(N)NC2=C(C(=O)CCC2)C1c1cccc(Cl)c1` (stereo not given) here?
A: 266 °C

Q: With `COc1cccc(OC)c1CN1CC2CCCN2c2ccccc21` (stereo not given) as the molecule, how does the melting point read?
A: 124 to 125 °C

Q: Which melting point does the source give for `COC(=O)c1c(Br)ccc2[nH]ncc12` here?
A: 164 to 165 °C

Q: Which melting point does the source give for `CC(=O)NCC1CN(c2ccc(N3CCN(C(=O)COC(=O)c4cccnc4)CC3)c(F)c2)C(=O)O1` (stereo not given) here?
A: 173 to 175 °C

Q: For `O=C1NC(=O)c2c1ccc1[nH]c3ccc(O)cc3c21`, which melting point is on record?
A: 335 to 345 °C

Q: Which melting point does the source give for `O=C(NC/C=C/c1ccccc1)c1cccs1` here?
A: 110 °C

Q: Which melting point does the source give for `O=C(O)c1ccc2c(c1)S(=O)(=O)c1ccccc1-2` here?
A: 312 °C

Q: With `CNC(=O)C(=NOC)c1ccccc1COc1ccc2c(c1)OCC2=O` as the molecule, how does the melting point read?
A: 149 to 151 °C

Q: Which melting point does the source give for `CCc1c2nc(-c3cc(C(C)=O)cnc3OCC(C)C)[nH]c(=O)c2nn1C1CCN(C)CC1` here?
A: 195 to 196 °C

Q: Which melting point does the source give for `CC(=O)c1cc(C(=O)O)c(=O)[nH]c1C` here?
A: 238 to 241 °C

Q: With `CCC1C(CC)N1S(=O)(=O)c1ccc(C)cc1` (stereo not given) as the molecule, how does the melting point read?
A: 69 to 70 °C

Q: With `CNC(=O)c1c(NC(=O)c2cc(C(F)(F)F)nn2-c2ncccc2Cl)ccc2cccnc12` as the molecule, how does the melting point read?
A: 219 to 220 °C

Q: Which melting point does the source give for `CC(=O)c1ccc2c(c1)C(=O)C=C(C)C2=O` here?
A: 126 °C

Q: With `CCOC(=O)c1cc(CC)sc1Nc1ccc([N+](=O)[O-])cc1[N+](=O)[O-]` as the molecule, how does the melting point read?
A: 146 to 148 °C

Q: With `CCCCOc1cc(CCC(=O)O)ccc1CCCc1ccc(OCC)c(OC)c1` as the molecule, how does the melting point read?
A: 66 °C

Q: For `Cc1nc2cc(Cn3ccnc3)ccc2n1Cc1cccnc1`, which melting point is on record?
A: 174 °C

Q: Which melting point does the source give for `COC(=O)C(NC(=O)c1c(F)cccc1F)c1ccc(Br)s1` (stereo not given) here?
A: 123 to 124 °C

Q: Which melting point does the source give for `CCSC(=S)SC1NC(=O)C1C(C)OC(C)=O` (mixture of isomers) here?
A: 101 to 105 °C

Q: With `CCCCC(=O)c1c(O)oc(=O)c(C(=O)CCCC)c1O` as the molecule, how does the melting point read?
A: 84 to 85 °C

Q: Which melting point does the source give for `CC(C)C[C@H](NC(=O)c1ccccc1)C(=O)NC#N` here?
A: 136 to 137 °C

Q: With `Nc1ccccc1CCN1CCN(c2nsc3ccccc23)CC1` as the molecule, how does the melting point read?
A: 149 °C

Q: Which melting point does the source give for `COc1cc(Nc2nccc(-c3cccc(NCCCO)c3)n2)cc(OC)c1OC` here?
A: 92 to 95 °C

Q: Which melting point does the source give for `O=C1[C@@H]2[C@H](O)CCN2C(=O)N1c1ccc([N+](=O)[O-])c2ccccc12` (relative stereo) here?
A: 255 to 257 °C

Q: Which melting point does the source give for `COC(=O)c1cc2c3c(cc([N+](=O)[O-])c2[nH]1)N(C(=O)c1cc2cc(OC)c(OC)c(OC)c2[nH]1)CC3CCl` (stereo not given) here?
A: 246 to 248 °C

Q: For `CC(C)(CCCOc1cccc(C(F)(F)F)c1)C(=O)O`, which melting point is on record?
A: 96 to 97 °C

Q: With `C=C(Br)c1cc(O)cc2nc(-c3ccc(O)cc3)oc12` as the molecule, how does the melting point read?
A: 228 to 230 °C

Q: Which melting point does the source give for `O=C1Nc2cc(CN3CC=C(c4ccc(Cl)cc4)CC3)cnc2N2CCCCC12` (stereo not given) here?
A: 202 °C

Q: For `IC12C3C4C5C3C1C5C42` (stereo not given), which melting point is on record?
A: 32 to 33 °C

Q: Which melting point does the source give for `c1ccc2c(c1)CCN(Cc1n[nH]c3c1CCc1ccccc1-3)C2` here?
A: 180 to 182 °C

Q: For `O=C(O)CN(CF)C(=O)c1ccccc1`, which melting point is on record?
A: 233 to 235 °C

Q: For `CCOC(=O)C1(C(C)C)OC2(O)C3CCCN3C(=O)C(Cc3ccccc3)N2C1=O` (stereo not given), which melting point is on record?
A: 152 to 154 °C

Q: Which melting point does the source give for `O=C(O)COc1cccc2c(CNC(=O)COc3ccccc3)coc12` here?
A: 156 to 157 °C

Q: For `CCOC(=O)c1cn(Cc2ccccc2OC)c2sc(-c3ccc(N)cc3)c(CN(C)Cc3ccccc3)c2c1=O`, which melting point is on record?
A: 120 to 122 °C

Q: With `CC1(C)Oc2ccc(C#N)cc2[C@@H](N2CCN(C(=O)c3ccco3)CC2=O)[C@@H]1O` (relative stereo) as the molecule, how does the melting point read?
A: 226 to 229 °C

Q: Which melting point does the source give for `COc1cc2c(cc1Nc1ncc(Cl)c(Nc3ccccc3S(C)(=O)=O)n1)CCN(CC(=O)N(C)C)CC2` here?
A: 77 to 99 °C

Q: For `CC(=O)N1CCN(c2c([N+](=O)[O-])cc([N+](=O)[O-])cc2C(F)(F)F)CC1`, which melting point is on record?
A: 126 °C

Q: For `CCOc1cc(N)c(Cl)cc1C(=O)NCC1CN(Cc2ccccc2Cl)C(C)(C)CO1` (stereo not given), which melting point is on record?
A: 181 to 184 °C

Q: Which melting point does the source give for `CC(C)(C)OC(=O)Nc1ccc2ccc(C#N)cc2c1` here?
A: 126 to 128 °C

Q: Which melting point does the source give for `O=S(=O)(Nc1cccc(CCOCc2ccc(-c3ccc(Cl)c(Cl)c3)cc2F)c1)C(F)(F)F` here?
A: 102 to 104 °C

Q: With `Oc1cc2c(cc1CCCOc1ccc3ccccc3c1-c1nnn[nH]1)OC(CCc1ccccc1)C2` (stereo not given) as the molecule, how does the melting point read?
A: 121 to 123 °C

Q: With `N#Cc1ccc(-c2ccc(Cl)c(OC3SCC(O)C(O)C3O)c2)cn1` (stereo not given) as the molecule, how does the melting point read?
A: 192 °C

Q: For `CCOC(=O)c1cccc(Cc2ccc3ccccc3c2O)c1`, which melting point is on record?
A: 86 to 87 °C

Q: With `OC(c1ccc2noc(-c3cccc(Cl)c3)c2c1)c1nc(-c2ccccc2)cs1` (stereo not given) as the molecule, how does the melting point read?
A: 136 °C

Q: With `COc1cccc(CC(=O)O)c1OCCCc1cn(-c2ccc(C(F)(F)F)cn2)nc1C1CCCCC1` as the molecule, how does the melting point read?
A: 140 to 141 °C

Q: Which melting point does the source give for `c1cc2nnnn2cc1C1CO1` (stereo not given) here?
A: 108 to 110 °C

Q: For `CS(=O)(=O)c1cnc(Cl)c(I)c1`, which melting point is on record?
A: 178 to 180 °C

Q: Which melting point does the source give for `COc1ccc(Cc2ccc(NC3=NCCN3)cc2)s1` here?
A: 122 to 123 °C

Q: For `CS(=O)(=O)c1ccc(-n2cc(COCc3ccccc3)nc2-c2ccc(Cl)cc2)cc1`, which melting point is on record?
A: 64 to 65 °C

Q: For `Cc1nn(-c2ccsc2)c(=O)cc1-c1ccc(OC2CCN(C3CCC3)CC2)cc1`, which melting point is on record?
A: 277 to 279 °C

— a melting point compilation (Tetko et al.; mined from patent text by program, amines drawn as free bases though some values may be those of a salt)
